Measured values taken from patent US20220213070A1, “COMPOUNDS INHIBITING TDG ACTIVITY” (EPITAS BIOSCIENCES (SHANGHAI) CO., LTD., priority 2019, published 2022).

Columns and labels:
[1] = tested on: Lung cancer cell line Calu-1; test: Inhibition of the growth of Calu-1 cells (CellTiter-Glo, 72 hours); format: cell-based; settings: Homo sapiens, 72 hours of culturing, read-out: Inhibitory activity on alu-1 cell growth IC50
Protocol: 14.2 Experimental Determination of Compound's Inhibitory Rate on the Growth of Calu-1 Cells
Lung cancer cell line Calu-1 was cultured in 90% McCoy's 5A medium (BI, 01-075-1ACS)+10% fetal bovine serum (Gibco, 10270106), placed in a CO2 incubator (37° C., 5% CO2, 95% air) for culturing. Calu-1 cells were digested with trypsin (Gibco, 12604-021) and seeded in a 384-well plate at a density of 500 cells per well. The medium was 50 μL and it was cultured overnight at 37° C. in an incubator. On the next day, different concentrations of test compounds were added, and the final concentration of DMSO was 0.1%. After 72 hours of culturing, the cells were taken out for test. The cell culture medium from the 384-well plate to be tested was removed, and fresh culture medium premixed with CTG was immediately added: the ratio of the culture medium to CellTiter-Glo® 2.0 reagent (Promega, G9243) was 2:1, 30 ul was added to each well. The plate was shaken at room temperature for 20 minutes, and then a multi-function plate reader (TECAN, Infinite 200 Pro) was used according to the reagent instructions to determine the cell survival.
According to the biological method described in this example, the selected compounds of the present invention were analyzed, and the results are shown in Table 1. Among them, “++” in Table 1 refers to the inhibitory activity on the growth of calu-1 cells with IC50≤5 μM; “+” refers to the inhibitory activity on the growth of calu-1 cells with IC50>5 μM.

TDG [2] = biological target: T1, TDG (Homo sapiens, UniProt Q13569); test: Inhibition of TDG mismatch repair activity (fluorescent G·U double-stranded DNA probe T1-T2); format: biochemical; settings: TDG 100 nM/L, preincubated with compound 37° C. 30 minutes; probe 30 nM; read-out: Inhibitory activity on TDG mismatch repair IC50
Text: 14.1 Experimental Determination of Compound's Inhibitory Rate on TDG Mismatch Repair Activity
(1) A double-stranded DNA probe T1-T2 containing uracil bases was synthesized. The nucleotide sequence of the T1 chain was: 5′-FAM-TAAUGTGAATGGAGCTGAAAT-biotin-3′; The nucleotide sequence of the T2 chain was 5′-ATTTCAGCTCCATTCACGTTA-3′. Using PCR annealing program, the T1 strand and T2 strand were complementary to form a double-stranded DNA probe T1-T2.
(2) The reaction system and steps for each well of a 96-well plate were as follows: a. TDG (100 nM/L) was mixed with different concentrations of compounds, and the mixture was incubated at 37° C. for 30 minutes. The composition of the reaction buffer was: 20 mM HEPES pH7.5, 100 mM NaCl, 0.2 mM EDTA, 2.5 mM MgCl2; b. The double-stranded DNA probe T1-T2 was added to the mixture to obtain a final volume of 100 μL, with a concentration of 30 nM, and the mixture was incubated at 25° C. for 30 min; c. 1 μL of streptavidin magnetic beads were added to the reaction solution and fully bound the biotin-labeled DNA for 1 hour; d. NaOH was added to the reaction solution to a final concentration of 200 mM, and the mixture was incubated at room temperature for 30 minutes; e. Under the action of a magnetic stand the streptavidin magnetic beads were adsorbed to the tube wall, the supernatant was transferred to a new 96-well plate, and placed in a Tecan microplate reader for fluorescence measurement. The parameter settings were: excitation wavelength 485 nm; emission wavelength 520 nm. A linear curve between fluorescence intensity and TDG concentration was constructed, R^2=0.9968, and the linear range was 0-50 nM/L;
According to the biological method described in this example, the selected compounds of the present invention were analyzed, and the results are shown in Table 1. Among them, “++” in Table 1 refers to the inhibitory activity for TDG mismatch repair with IC50≤5 μM; “+” refers to the inhibitory activity for TDG mismatch repair with IC50>5 μM.

TDG [3] = biological target: T1, TDG; test: TDG inhibitory activity of compounds in cells (caC-cmv-firefly luciferase reporter, HEK 293T TDG KO cells transfected with pCDNA4-TDG); format: cell-based; settings: read-out: Inhibition rate on TDG activity
Protocol: Experimental Determination of TDG Inhibitory Activity of Compounds in Cells
The operation steps of this example are as follows:
(1) Preparation of Methylation Reporter Plasmid:
(a) SAM with a stock solution concentration of 32 mM was diluted with ultrapure water to 1600 μM;
(b) The reaction system was prepared according to the following ratio: 30 μl ultrapure water, 5 μl 10×NEBuffer 2, 5 μl diluted SAM, 1 μg pCpGL-CMV-firefly plasmid, 1 μl SssI methylase (4 U/μl); 50 μl in total, the reaction was carried out at 37° C. for 2 hours;
(c) The mixture was heated at 65° C. for 20 minutes. Then 0.2% SDS was added, the reaction was carried out at 80° C. for 10 min; and then 1 μl Proteinase K was added, the reaction was carried out at 50° C. for 1 h;
(d) The methylated plasmid was recovered with Dr. GenTLE® sedimentation aid (TAKARA).
(2) Preparation of 5fC/5caC pCpGL-CMV-Firefly Reporter Plasmid
(a) The following 10× reaction system was prepared:
(b) The reaction system was prepared according to the following ratio:
(c) The reaction was carried out at 37° C. for one hour;
(d) 24 μg Tet1 protein was added for the second time and the reaction was continued for one hour;
(e) SDS was added to a final concentration of 0.5%, 80° C., 10 minutes, then 1 μl Proteinase K was added, 55° C. overnight.
(f) The treated caC-cmv-firefly plasmid was recovered with Dr. GenTLE® sedimentation aid (TAKARA) and was quantified.
(3) Using the Luciferase Activity Assay Method to Detect the Inhibitory Rate of Small Molecule Compounds on Intracellular TDG Enzyme Activity
In a 96-well plate, the reaction system and operation flow of each well were as follows:
(a) 1 ng caC-cmv-firefly, Ing pCpGL-CMV-Relina and 150 ng pCDNA4-TDG or 150 ng pCDNA4-myc plasmid, were diluted to 75 ul Opti-MEM, mixed well and allowed to stand still for 5 minutes;
(b) 2 ul transfection reagent (Hieff Trans™ Liposomal transfection Reagent (0.5 ul/well, YEAEEN, Cat #40802)) was diluted in 100 ul Opti-MEM, mixed well and allowed to stand still for 5 minutes;
(c) 75 ul of (a) and (b) were mixed respectively, and allowed to stand still at room temperature for 20 minutes;
(d) HEK 293T TDG KO cells were digested with trypsin, the cells were collected and counted, and the suspension cell concentration was adjusted to 4×10^5/ml;
(e) 50 ul of the mixture (c) was added to each well, and at the same time 100 ul of the diluted cell suspension was added to the same well, and they were mixed well.
(f) After the cells adhering to the wall, different concentrations of small molecule compounds to be tested were added to each well.
(g) Incubation was performed in a 37° C. CO2 incubator for 72 hours. The supernatant was removed and the cells were quickly freezed at −80° C.
(h) Before detecting the luciferase activity, the cells to be tested were removed from −80° C. and allowed to stand still at room temperature for 30 minutes. Following the instructions of Dual-Glo® Luciferase Reagent (PROMEGA), the firefly fluorescence value and Renilla fluorescence value of each well were detected.
(i) The firefly fluorescence value was divided with the Renilla fluorescence value of each well; 96-well plate Z′ and experimental window was calculated by the ratio of transfected caC-cmv-firefly, pCpGL-CMV-Relina, pCDNA4-TDG plasmid mixture plus DMSO experimental group to transfected caC-cmv-firefly, pCpGL-CMV-Relina, pCDNA4-myc plasmid mixture plus DMSO experimental group, and the relative enzyme activity inhibition rate of each compound was calculated.
According to the biological method described in this example, the selected compounds of the present invention were analyzed, and the results are shown in Table 2. Among them, “+” in Table 2 refers to the compound's TDG inhibitory activity at a concentration of 10 μM≤25%; “++” refers to the compound's TDG inhibitory activity at a concentration of 10 μM>25%.

T1 sequence (Q13569 whole entry): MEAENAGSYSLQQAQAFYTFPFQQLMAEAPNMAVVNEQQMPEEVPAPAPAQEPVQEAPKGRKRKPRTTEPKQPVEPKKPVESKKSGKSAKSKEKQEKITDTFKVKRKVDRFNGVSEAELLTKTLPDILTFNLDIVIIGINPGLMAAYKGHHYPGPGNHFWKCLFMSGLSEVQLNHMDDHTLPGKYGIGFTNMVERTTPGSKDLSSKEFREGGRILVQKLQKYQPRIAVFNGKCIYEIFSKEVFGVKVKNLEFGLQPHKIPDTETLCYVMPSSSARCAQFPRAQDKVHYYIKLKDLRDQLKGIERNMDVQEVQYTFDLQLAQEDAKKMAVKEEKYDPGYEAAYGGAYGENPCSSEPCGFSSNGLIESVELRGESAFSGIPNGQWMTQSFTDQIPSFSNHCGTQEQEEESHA

Row | Compound | IC50 [1] | IC50 (TDG [2]) | inhibition at 10 µM (TDG [3])
1 | O=C(c1ccc2c(c1)OCCO2)N1Cc2ccccc2C1 [Compound 33, (2,3-dihydrobenzo[b][1,4]dioxin-6-yl)(isoindolin-2-yl)methanone] | > 5 µM | > 5 µM | < 25%
2 | O=C(CCN1CCc2ccccc2C(O)(c2ccc(F)cc2)C1)c1ccc2c(c1)OCCO2 (stereo not drawn) [Compound 53, 1-(2,3-dihydrobenzo[b][1,4]dioxin-6-yl)-3-(1-(4-fluorophenyl)-1-hydroxy-1,2,4,5-tetrahydro-3H-benzo[d]azepine-3-yl)propan-1-one] | ≤ 5 µM | ≤ 5 µM | < 25%
3 | O=C(CCN1CCC(c2ccc(Br)cc2)C1)c1ccc2c(c1)OCCO2 (stereo not drawn) [Compound 47, 3-(3-(4-bromophenyl)pyrrolidin-1-yl)-1-(2,3-dihydrobenzo[b][1,4]dioxin-6-yl)propan-1-one] | ≤ 5 µM | ≤ 5 µM | < 25%
4 | O=C(CCN1Cc2ccccc2C1)c1ccc2c(c1)C(=O)CCO2 [Compound 36, 6-(3-(isoindolin-2-yl)propionyl)chroman-4-one] | ≤ 5 µM | ≤ 5 µM | < 25%
5 | COc1ccc(C(=O)CCN2Cc3ccccc3C2)cc1OC [Compound 38, 1-(3,4-dimethoxyphenyl)-3-(isoindolin-2-yl)propan-1-one] | > 5 µM | > 5 µM | > 25%
6 | N#Cc1ccc2c(c1)CN(CCC(=O)c1ccc3c(c1)OCCO3)C2 [Compound 8] | > 5 µM | ≤ 5 µM | < 25%
7 | O=C(CCN1CCC(c2ccc(F)cc2O)C1)c1ccc2c(c1)OCCO2 (stereo not drawn) [Compound 51, 1-(2,3-dihydrobenzo[b][1,4]dioxin-6-yl)-3-(3-(4-fluoro-2-hydroxyphenyl)pyrrolidine-1-yl)propan-1-one] | > 5 µM | > 5 µM | < 25%
8 | O=C(CCn1ncc2ccncc21)c1ccc2c(c1)OCCO2 [Compound 25, 1-(2,3-dihydrobenzo[b][1,4]dioxin-6-yl)-3-(1H-pyrazolo[3,4-c]pyridine-1-yl)propan-1-one] | > 5 µM | > 5 µM | < 25%
9 | O=C(CCN1CCC(c2ccc(C(F)(F)F)cc2)C1)c1ccc2c(c1)OCCO2 (stereo not drawn) [Compound 45, 1-(2,3-dihydrobenzo[b][1,4]dioxin-6-yl)-3-(3-(4-(trifluoromethyl)phenyl)pyrrolidine-1-yl)propan-1-one] | ≤ 5 µM | > 5 µM | < 25%
10 | O=C(CCN1CCC(O)(c2ccccc2)C1)c1ccc2c(c1)OCCO2 (stereo not drawn) [Compound 44, 1-(2,3-dihydrobenzo[b][1,4]dioxin-6-yl)-3-(3-hydroxy-3-phenylpyrrolidin-1-yl)propan-1-one] | ≤ 5 µM | > 5 µM | < 25%
11 | O=C(CCN1Cc2ccccc2C1)c1ccc2c(c1)OCCO2 [Compound 1, 1-(2,3-dihydrobenzo[b][1,4]dioxin-6-yl)-3-(isoindolin-2-yl)propan-1-one] | ≤ 5 µM | ≤ 5 µM | > 25%
12 | O=C(CCn1cc(-c2ccccc2)cn1)c1ccc2c(c1)OCCO2 [Compound 28, 1-(2,3-dihydrobenzo[b][1,4]dioxin-6-yl)-3-(4-phenyl-1H-pyrazol-1-yl)propan-1-one] | > 5 µM | > 5 µM | < 25%
13 | O=C(CCCN1Cc2ccccc2C1)c1ccc2c(c1)OCCO2 [Compound 31, 1-(2,3-dihydrobenzo[b][1,4]dioxin-6-yl)-4-(isoindolin-2-yl)butan-1-one] | > 5 µM | > 5 µM | < 25%
14 | C=CC(=O)c1ccc2c(c1)OCCO2 [Compound 42, 1-(2,3-dihydrobenzo[b][1,4]dioxin-6-yl)prop-2-en-1-one] | ≤ 5 µM | ≤ 5 µM | < 25%
15 | O=C(CCN1Cc2ccccc2C1)c1ccc2c(c1)SCCO2 [Compound 37, 1-(2,3-dihydrobenzo[b][1,4]oxathion-6-yl)-3-(isoindolin-2-yl)propan-1-one] | > 5 µM | > 5 µM | < 25%
16 | O=C(CCN1CCCC1)c1ccc2c(c1)OCCO2 [Compound 16, 1-(2,3-dihydrobenzo[b][1,4]dioxin-6-yl)-3-(pyrrolidin-1-yl)propan-1-one] | > 5 µM | ≤ 5 µM | < 25%
17 | O=C(CCN1CCC(=O)c2ccccc21)c1ccc2c(c1)OCCO2 [Compound 27, 1-(3-(2,3-dihydrobenzo[b][1,4]dioxin-6-yl)-3-oxopropyl)-2,3-dihydroquinoline-4(1H)-one] | > 5 µM | > 5 µM | < 25%
